Where two headings read alike, the source gives them in different places.
Tests used:
[1] = test system: bone resorption; assay type: in vivo, rat (Sprague-Dawley female); conditions: equimolar weekly i.v. doses
Method: Lysylpyridinoline concentration is a measure of the breakdown of bone collagen.
Effect of PGE2 /ABP (IIIa) on bone resorption estimated by urinary excretion of lysypyridinoline in the rat
4 week old Sprague-Dawley female rats were injected intravenously via the tail vein with equimolar weekly doses of ABP (1 mg/kg, n=5), PGE2 /ABP (2.4 mg/kg, n=5), PGE2 (1.4 mg/kg, n=5), or saline (n=4) each. Filtered urine was collected after 12 and 26 days by housing individual rats in metabolic cages and providing them with food and water ad libitum. The overnight collections of urine were centrifuged at 1000×g for 10 minutes to remove any particles and the supernatant fluid was stored at -80° C. until analysis. Lysylpyridinoline (LP) was extracted from duplicate 1 ml aliquots by acid hydrolysis and subsequent low pressure CF-1 chromatography according to the method of Beardsworth et al. (1990). LP was further resolved by high pressure liquid chromatography according to the method of Uebelhart et al. (1990) and quantitated by comparison with an external standard. Urinary creatinine was measured using the picric acid colorimetric assay (Pharmacia Diagnostics Inc., Fairfield, N.J.). Final results were expressed as pmoles LP per μmole creatinine. […]

[2] = test system: bone loss due to limb immobilization; experiment: Effects on bone loss due to limb immobilization in the rat (unilateral sciatic neurectomy, femoral ash weight); assay type: in vivo, rat (Sprague-Dawley male); conditions: s.c. on two consecutive days before neurectomy; femoral ash weight difference, ten days post-neurectomy; ABP 0.5 mg/kg, PGE2/ABP 1.2 mg/kg, PGE2 0.7 mg/kg; n=6
Method: ABP, PGE2 /ABP, and PGE2 effects on bone loss due to limb immobilization in the rat
Male Sprague-Dawley rats weighing 270 grams (10-12 wks) were injected subcutaneously on two consecutive days prior to unilateral sciatic neurectomy induced hindlimb immobilization with the following doses: Vehicle (0.0 mg/kg), ABP (0.5mg/kg), PGE2 /ABP (1.2 mg/kg), PGE2 (0.7 mg/kg). Ten days post-neurectomy femora were removed at necropsy, dissected from the musculature, and placed in crucibles for incineration at 700° C. for twenty-four hours. Following incineration, the femoral ash content was weighed to the nearest 0.1 mg and the femoral ash weight differences between the control and immobilized hindlimb were calculated. Data represent mean ±SEM (n=6).

[3] = administered systemically; cited from earlier work
[4] = test system: bone formation; conditions: systemic injection; cited from earlier work
[5] = cited from earlier work
[6] = long term s.c. administration; cited from earlier work
[7] = 1, 3 and 6 mg of PGE2/Kg/day, cited from earlier work
[8] = cited from earlier work; remark: listed apart in the source
[9] = cited from earlier work; remark: listed apart in the source

Row | Compound | urinary lysylpyridinoline (LP) level versus vehicle ([1]; 12 days) | urinary lysylpyridinoline (LP) level versus vehicle ([1]; 26 days) | prevention of bone loss accompanying limb immobilization [2] | half-life [3] | bone formation in vivo [4] | serum phosphate levels ([5]; 1 mg of PGE2, rats) | side effects ([5]; s.c., rats, doses of 3 mg/Kg/day or higher) | soft tissue weight [6] | hard tissue mass ([7]; secondary spongiosa of proximal tibial metaphysis) | number of trabeculae [7] | periosteal and corticoendosteal bone mass ([8]; daily administration) | bone activity ([8]; s.c., 60, 120, and 180 days) | tibial diaphyseal bone mass ([8]; s.c., 60, 120, and 180 days) | side effects after oral dosing [9] | serum alkaline phosphatase levels ([9]; oral)
1 | NCCCC(O)(P(=O)([O-])[O-])P(=O)(O)O.[Na+].[Na+] [ABP, 4-amino-1-hydroxybutylidene bisphosphonic acid disodium salt] | lower levels of LPs | lower levels of LPs | effective |  |  |  |  |  |  |  |  |  |  |  | 
2 | CCCCC[C@H](O)/C=C/[C@H]1[C@H](O)CC(=O)[C@@H]1C/C=C\CCCC(=O)O [PGE2] |  |  | no statistical difference | short half-life | stimulated | significant decreases | diarrhea and flushing of the extremities along with weight loss | soft tissue weight increases in adrenal glands, liver, kidneys, and lungs | increase in hard tissue mass | increase in the number of trabeculae | increases periosteal and corticoendosteal bone mass and sustains the transient increase in bone mass | elevated bone activity | increased tibial diaphyseal bone mass | loose stools, diarrhea, vomiting, infected sclerae | increased serum alkaline phosphatase levels
